Measurements as given in patent US7579491B2, “Process for preparing brevifoliol” (Council of Scientific and Industrial Research, priority 2002, dated 2009).

Test system: different cancer cell lines
Assay: in vitro testing for anticancer activity
Type: cell-based
Method: The isolation of brevifoliol from leaves of the plant Taxus wallichiana is also reported in S. K. Chattopadhyay et al Indian J. Chemistry 35B, 175-177(1996) as part of studies on the isolation of anticancer compounds. The process of this disclosure involved extracting the dried and crushed needles of Taxus wallichiana with methanol for 72 hours and the extract was concentrated in vacuo. The concentrate was diluted with water and extracted with hexane and chloroform respectively. Concentration of the chloroform phase under vacuum left a residue which was separated by column chromatography over silica gel. Fraction eluted with chloroform-methanol (98:5) contained brevifoliol which was further purified by re-chromatography over silica gel and eluted with chloroform-methanol (99:2). Fractions containing brevifoliol were combined and concentrated and recrystallized from pet-ether and ethyl acetate mixture to get brevifoliol as needles. […] The detection of anticancer activity in brevifoliol prompted the present investigators to develop an efficient processing technology for isolation of the compound in large quantities from the needles of the plant for further biological testing.

`C=C1C2C[C@]3(C(C)(C)O)CC(O)C(C)=C3[C@@H](OC(=O)c3ccccc3)[C@H](OC(C)=O)[C@]2(C)[C@@H](OC(C)=O)C[C@@H]1O` (stereo partly shown) [brevifoliol] was tested, and the anticancer activity was “significant anticancer activity”.
